This passage reports IC50 and EC50 results from patent US20260242391A1 (priority 2023, published 2026).

A short description of series [1]: in vitro. The note with it: human.
For series [2], the system named is HL-60. As to the kind of experiment: HL-60 differentiation potency. The conditions noted are these: Homo sapiens. It counts as cell-based.

Broadly, the IC50 is the concentration that inhibits the measured activity by half. Lower therefore signals greater potency. As usually defined, the EC50 is the concentration at which the effect is half-maximal. On to `C[C@H]1[C@H](OCc2c(Cl)cc(C(=O)O)cc2S(C)(=O)=O)O[C@@H]2O[C@@]3(C)CC[C@H]4[C@H](C)CC[C@@H]1[C@@]24OO3` [Compound 217, 3-chloro-5-(methylsulfonyl)-4-((((3R,5aS,6R,8aS, 9R,10R,12R, 12aR)-3,6,9-trimethyldeca-hydro-12H-3,12-epoxy[1,2]dioxepino[4,3-i]isochromen-10-yl)oxy)methyl) benzoic acid], for which, in series [1], the half-maximal inhibitory concentration (IC50) worked out at 3000 nM. In series [2], the EC50 came to 53.1 nM.
The matching figures for `C[C@H]1[C@@H](Oc2ccc(Cn3cc(C(=O)O)nn3)c(Br)c2)O[C@@H]2O[C@@]3(C)CC[C@H]4[C@H](C)CC[C@@H]1[C@@]24OO3` [Compound 264, 1-(2-bromo-4-(((3R,5aS,6R,8aS,9R,10S,12R, 12aR)-3,6,9-trimethyldeca-hydro-12H-3,12-epoxy[1,2]dioxepino[4,3-i]isochromen-10-yl)oxy)benzyl)-1H-1,2,3-triazole-4-carboxylic acid]: 1430 nM and 159 nM.
Regarding `C[C@H]1[C@@H](Oc2ccc(CC(=O)N[C@@H]3C[C@H](C(=O)O)C[C@H]3O)cc2)O[C@@H]2O[C@@]3(C)CC[C@H]4[C@H](C)CC[C@@H]1[C@@]24OO3` [Compound 299, (1S,3R,4R)-3-hydroxy-4-(2-(4-(((3R,5aS,6R,8aS, 9R,10S,12R, 12aR)-3,6,9-trimethyldeca-hydro-12H-3,12-epoxy[1,2]dioxepino[4,3-i]isochromen-10-yl)oxy)phenyl)acetamido) cyclopentane-1-carboxylic acid], half-maximal inhibition in series [1] (IC50) was put at 4990 nM. Besides, in series [2], a half-maximal effect (EC50) was put at 108 nM.
Take `C[C@H]1[C@@H](OCC(=O)N2C[C@@H]3CCC[C@@H]3[C@H]2C(=O)O)O[C@@H]2O[C@@]3(C)CC[C@H]4[C@H](C)CC[C@@H]1[C@@]24OO3` [Compound 191, (1S,3aR,6aS)-2-(2-(((3R,5aS,6R, 8aS,9R,10S,12R, 12aR)-3,6,9-trimethyldeca-hydro-12H-3,12-epoxy[1,2]dioxepino[4,3-i]isochromen-10-yl)oxy)acetyl) octahydrocyclo-penta[c]pyrrole-1-carboxlic acid]: the IC50 in series [1] is > 20000 nM. This compound also came in with an EC50 in series [2] of 9730 nM.
Turning to `C[C@H]1[C@@H](Oc2ccc(OCCC(=O)O)cc2)O[C@@H]2O[C@@]3(C)CC[C@H]4[C@H](C)CC[C@@H]1[C@@]24OO3` [Compound 250, 3-(4-(((3R,5aS,6R,8aS, 9R,10S,12R, 12aR)-3,6,9-trimethyldeca-hydro-12H-3,12-epoxy[1,2]dioxepino[4,3-i]isochromen-10-yl)oxy)phenoxy) propanoic acid], the IC50 in series [1] was 17600 nM. This compound displayed an EC50 in series [2] of 88.2 nM.
Taken in the same sequence, the figures for `C[C@H]1[C@@H](Oc2ccc(C(=O)N(C)[C@H]3CC[C@@H](C(=O)O)C3)cc2)O[C@@H]2O[C@@]3(C)CC[C@H]4[C@H](C)CC[C@@H]1[C@@]24OO3` [Compound 272, (1R,3S)-3-(N-methyl-4-(((3R,5aS,6R,8aS, 9R,10S,12R, 12aR)-3,6,9-trimethyldeca-hydro-12H-3,12-epoxy[1,2]dioxepino[4,3-i]isochromen-10-yl)oxy)benzamido) cyclopentane-1-carboxylic acid] were 9270 nM and 105 nM.
Compound `C[C@H]1[C@@H](Oc2ccc(CC(=O)N[C@H]3CC[C@@H](C(=O)O)C3)cc2)O[C@@H]2O[C@@]3(C)CC[C@H]4[C@H](C)CC[C@@H]1[C@@]24OO3` [Compound 239, (1R,3S)-3-(2-(4-(((3R,5aS,6R,8aS, 9R,10S,12R, 12aR)-3,6,9-trimethyldeca-hydro-12H-3,12-epoxy[1,2]dioxepino[4,3-i]isochromen-10-yl)oxy)phenyl)acetamido)cyclo-pentane-1-carboxylic acid] came in with an IC50 in series [1] of 16200 nM. This compound also yielded an EC50 in series [2] of 21.9 nM.
Taken in the same sequence, the figures for `CC(C)[C@H](NC(=O)c1ccc(O[C@H]2O[C@@H]3O[C@@]4(C)CC[C@H]5[C@H](C)CC[C@@H]([C@H]2C)[C@@]35OO4)cc1)C(=O)O` [Compound 236, (4-(((3R,5aS,6R,8aS, 9R,10S,12R, 12aR)-3,6,9-trimethyldeca-hydro-12H-3,12-epoxy[1,2]dioxepino[4,3-i]isochromen-10-yl)oxy)benzoyl)-L-valine] were 9100 nM and 47.4 nM.
The matching figures for `C[C@H]1[C@@H](Oc2ccc(O[C@H]3CC[C@@H](C(=O)O)CC3)cc2)O[C@@H]2O[C@@]3(C)CC[C@H]4[C@H](C)CC[C@@H]1[C@@]24OO3` [Compound 243, (1R,4s)-4-(4-(((3R,5aS,6R,8aS, 9R,10S,12R, 12aR)-3,6,9-trimethyldeca-hydro-12H-3,12-epoxy[1,2]dioxepino[4,3-i]isochromen-10-yl)oxy)phenoxy) cyclohexane-1-carboxylic acid]: 720 nM and 74.2 nM.
Taken in the same sequence, the figures for `C[C@H]1[C@@H](OC/C=C/[C@@H]2CCC[C@H](C(=O)O)C2)O[C@@H]2O[C@@]3(C)CC[C@H]4[C@H](C)CC[C@@H]1[C@@]24OO3` [Compound 269, (1S,3R)-3-((E)-3-(((3R,5aS,6R,8aS, 9R,10S,12R, 12aR)-3,6,9-trimethyldeca-hydro-12H-3,12-epoxy[1,2]dioxepino[4,3-i]isochromen-10-yl)oxy)prop-1-en-1-yl) cyclohexane-1-carboxylic acid] were 7330 nM and 143 nM.
The compound `C[C@H]1[C@@H](Oc2ccc(C(=O)O)cc2Cl)O[C@@H]2O[C@@]3(C)CC[C@H]4[C@H](C)CC[C@@H]1[C@@]24OO3` [Compound 235, 3-chloro-4-(((3R,5aS,6R,8aS, 9R,10S,12R, 12aR)-3,6,9-trimethyldeca-hydro-12H-3,12-epoxy[1,2]dioxepino[4,3-i]isochromen-10-yl)oxy)benzoic acid] showed an IC50 in series [1] of 15000 nM. In addition, the EC50 in series [2] is 37.5 nM.
Taken in the same sequence, the figures for `C[C@H]1[C@@H](OCc2ccc(C(=O)N[C@H]3C[C@@H](C(=O)O)C3)cc2)O[C@@H]2O[C@@]3(C)CC[C@H]4[C@H](C)CC[C@@H]1[C@@]24OO3` [Compound 278, (1R,3s)-3-(4-((((3R,5aS,6R,8aS, 9R,10S,12R, 12aR)-3,6,9-trimethyldeca-hydro-12H-3,12-epoxy[1,2]dioxepino[4,3-i]isochromen-10-yl)oxy)methyl)benzamido) cyclobutane-1-carboxylic acid] were > 20000 nM and 354 nM.
`C[C@H]1[C@@H](OCc2ccc(-c3nnc(CC(=O)O)o3)cc2)O[C@@H]2O[C@@]3(C)CC[C@H]4[C@H](C)CC[C@@H]1[C@@]24OO3` [Compound 304, 2-(5-(4-((((3R,5aS,6R,8aS, 9R,10S,12R, 12aR)-3,6,9-trimethyldeca-hydro-12H-3,12-epoxy[1,2]dioxepino[4,3-i]isochromen-10-yl)oxy)methyl)phenyl)-1,3,4-oxadiazol-2-yl)acetic acid] came in with an IC50 in series [1] of 30 nM. Moreover, the EC50 in series [2] worked out at 11.2 nM.
Consider `C[C@H]1[C@@H](OCc2c(Cl)cc(C(=O)O)cc2S(C)(=O)=O)O[C@@H]2O[C@@]3(C)CC[C@H]4[C@H](C)CC[C@@H]1[C@@]24OO3` [Compound 216, 3-chloro-5-(methylsulfonyl)-4-((((3R,5aS,6R,8aS, 9R,10S,12R, 12aR)-3,6,9-trimethyldeca-hydro-12H-3,12-epoxy[1,2]dioxepino[4,3-i]isochromen-10-yl)oxy)methyl) benzoic acid], for which the IC50 in series [1] is > 20000 nM. Further, the EC50 in series [2] turned out to be 7180 nM.
